ChEMBL document CHEMBL5576053, “Nonclassical Zwitterions as a Design Principle to Reduce Lipophilicity without Impacting Permeability” (J Med Chem, 2024)

What was measured:
Assay type in all cases: physicochemical
[1] = Basic ionization constant, pKa of the compound
[2] = Acidic ionization constant, pKa of the compound
[3] = 1-octanol/water partition coefficient, acidic logP of compound by shake flask method
[4] = Ionization constant, pKa of compound
[5] = Acidic ionization constant, pKa of the compound by potentiometric titration analysis
[6] = Ionization constant, pKa of compound at pH 5 to 10
[7] = Ionization constant, pKa of compound at pH 1 to 5

With `O=C(NC1CCCCC1)c1nccc(Cl)c1O` the pKa [1] was < 2 and the pKa [2] was 6.8.

For `N[C@@H](Cc1cc(I)c(Oc2ccc(O)c(I)c2)c(I)c1)C(=O)O` [LIOTHYRONINE], the logP [3] was 4.1.

For `Cc1cc(NC(=O)C2=C(O)c3ccccc3S(=O)(=O)N2C)no1` [ISOXICAM], the pKa [1] was < 2.

Work on `CCOC(=O)CNC(=O)c1ncccc1O` yielded a pKa [1] of 2.2.

In the case of `CNC(=O)c1ccccc1O`, the pKa [2] is reported as 8.

Work on `COc1cccc(CNC(=O)c2ncccc2OC)c1` yielded a pKa [1] of 2.9.

Compound `Cc1ncc(CO)c(CO)c1O` [PYRIDOXINE] has a pKa [4] of 5.

`CN1C(C(=O)Nc2ccccn2)=C(O)c2ccccc2S1(=O)=O` [PIROXICAM] gave a logP [3] of 4.

With `Cc1ccnc(C(=O)NC2CCCCC2)c1O` the pKa [1] was < 2 and the pKa [2] was 8.5.

`COc1ccnc(C(=O)NC2CCCCC2)c1O` gave a pKa [1] of 2.3 and a pKa [2] of 9.1.

In the case of `CN1C(C(=O)Nc2nccs2)=C(O)c2ccccc2S1(=O)=O` [SUDOXICAM], the pKa [1] is reported as < 2 and the pKa [2] is reported as 3.1.

In the case of `CN1C(C(=O)Nc2ccccn2)=C(O)c2sc(Cl)cc2S1(=O)=O` [LORNOXICAM], the pKa [1] is reported as < 2.

With `CCCC1C(=O)N2C(N(C)C)=Nc3ccc(C)cc3N2C1=O` (stereo unspecified) [APAZONE] the pKa [1] was < 2.

Work on `N[C@@H](Cc1cc(I)c(Oc2cc(I)c(O)c(I)c2)c(I)c1)C(=O)O` [LEVOTHYROXINE] yielded a logP [3] of 5.4.

Work on `CCc1cc(/C(C)=N/OCc2ccc(C3CCCCC3)c(C(F)(F)F)c2)ccc1CN1CC(C(=O)O)C1` [SIPONIMOD] yielded a logP [3] of 8.9.

`NC(=O)c1ncn([C@@H]2O[C@H](CO)[C@@H](O)[C@H]2O)c1O` [MIZORIBINE] showed a pKa [5] of 6.5.

Work on `CC(C)CCNC(=O)c1ncccc1O` yielded a pKa [6] of 7.85, a pKa [1] of 2.3 and a pKa [2] of 7.9. It also gave a pKa [7] of 2.4.

For `CC(C)(C)NC(=O)c1ccccn1`, the pKa [1] was 2.1.

Compound `O=C(NC1CCCCC1)c1ncccc1O` has a pKa [1] of 2.2.
